# Marks after values point to notes of the source that are not given here.
# Assays:
# Septoria nodorum = assay: Test F: Septoria glume blotch, preventive spray on wheat seedlings, visual disease rating
# Alternaria solani = assay: Test C: tomato early blight, preventive spray on tomato seedlings, visual disease rating
# [1] = system: Erysiphe graminis f sp. tritici; assay: Test J: wheat powdery mildew, preventive spray on wheat seedlings, visual disease rating
# Botrytis cinerea = assay: Test B: tomato Botrytis, preventive spray on tomato seedlings, visual disease rating
# [2] = system: Puccinia recondita f. sp. tritici; assay: Test I: wheat leaf rust, preventive spray on wheat seedlings, visual disease rating
# [3] = system: Puccinia recondita f. sp. tritici; assay: Test H: wheat leaf rust, curative spray on inoculated wheat seedlings, visual disease rating
# Septoria tritici = assay: Test G: wheat leaf blotch, preventive spray on wheat seedlings, visual disease rating
# [4] = Septoria glume blotch on wheat, preventive spray, 100 = 100% disease control, 0 = no control
# [5] = tomato early blight, preventive spray, 100 = 100% disease control, 0 = no control
# [6] = wheat powdery mildew, preventive spray, 100 = 100% disease control, 0 = no control
# [7] = tomato Botrytis, preventive spray, 100 = 100% disease control, 0 = no control
# [8] = wheat leaf rust, preventive spray, 100 = 100% disease control, 0 = no control
# [9] = wheat leaf rust, curative spray, 100 = 100% disease control, 0 = no control
# [10] = wheat leaf blotch, preventive spray, 100 = 100% disease control, 0 = no control
# [11] = Septoria glume blotch, 100 = 100% disease control, 0 = no control relative to controls
# [12] = tomato early blight, 100 = 100% disease control, 0 = no control relative to controls
# [13] = wheat powdery mildew, 100 = 100% disease control, 0 = no control relative to controls
# [14] = tomato Botrytis, 100 = 100% disease control, 0 = no control relative to controls
# [15] = wheat leaf rust, preventive, 100 = 100% disease control, 0 = no control relative to controls
# [16] = wheat leaf rust, curative, 100 = 100% disease control, 0 = no control relative to controls
# [17] = wheat leaf blotch, 100 = 100% disease control, 0 = no control relative to controls
Structure (SMILES),Test F rating (% disease control) (Septoria nodorum; [4]) [%],Test C rating (% disease control) (Alternaria solani; [5]) [%],"Test J rating (% disease control) [1, 6] [%]",Test B rating (% disease control) (Botrytis cinerea; [7]) [%],"Test I rating (% disease control) [2, 8] [%]","Test H rating (% disease control) [3, 9] [%]",Test G rating (% disease control) (Septoria tritici; [10]) [%],Test F rating (% disease control) (Septoria nodorum; [11]) [%],Test C rating (% disease control) (Alternaria solani; [12]) [%],"Test J rating (% disease control) [1, 13] [%]",Test B rating (% disease control) (Botrytis cinerea; [14]) [%],"Test I rating (% disease control) [2, 15] [%]","Test H rating (% disease control) [3, 16] [%]",Test G rating (% disease control) (Septoria tritici; [17]) [%],other results
"Cc1nn(C)c(Nc2c(F)cc(F)cc2Cl)c1-c1c(F)cccc1F [Compound 297, N-(2-chloro-4,6-difluorophenyl)-4-(2,6-difluorophenyl)-1,3-dimethyl-1H-pyrazol-5-amine]",–,–,–,–,–,–,–,–,–,–,–,–,–,–,"pest or weed control at 200 µg/mL (Septoria nodorum; Parastagonospora nodorum, in Triticum aestivum, 192 h, read-out: Test F rating (% disease control)): 90%; pest or weed control at 200 µg/mL (Alternaria solani; Alternaria solani, in Solanum lycopersicum, 168 h, read-out: Test C rating (% disease control)): 99%; pest or weed control at 200 µg/mL ([1]; Blumeria graminis, in Triticum aestivum, 192 h, read-out: Test J rating (% disease control)): 100%; pest or weed control at 200 µg/mL (Botrytis cinerea; Botrytis cinerea, in Solanum lycopersicum, 120 h, read-out: Test B rating (% disease control)): 100%; pest or weed control at 200 µg/mL ([2]; 192 h, read-out: Test I rating (% disease control)): 100%; pest or weed control at 200 µg/mL ([3]; 144 h, read-out: Test H rating (% disease control)): 0%; pest or weed control at 200 µg/mL (Septoria tritici; Zymoseptoria tritici, in Triticum aestivum, 504 h, read-out: Test G rating (% disease control)): 100%"
Cc1nn(C)c(Nc2ccc(F)cc2F)c1-c1cccc(Cl)c1Cl [compound 302],–,–,–,–,–,–,–,–,–,–,–,–,–,–,"Test F rating (% disease control), marked * (Septoria nodorum; Septoria glume blotch, rating marked with asterisk (*), meaning not given): 0* %; Test C rating (% disease control), marked * (Alternaria solani; tomato early blight, rating marked with asterisk (*), meaning not given): 0* %; Test J rating (% disease control), marked * ([1]; wheat powdery mildew, rating marked with asterisk (*), meaning not given): 97* %; Test B rating (% disease control), marked * (Botrytis cinerea; tomato Botrytis, rating marked with asterisk (*), meaning not given): 99* %; Test I rating (% disease control), marked * ([2]; wheat leaf rust, preventive, rating marked with asterisk (*), meaning not given): 18* %; Test H rating (% disease control), marked * ([3]; wheat leaf rust, curative, rating marked with asterisk (*), meaning not given): 0* %; Test G rating (% disease control), marked * (Septoria tritici; wheat leaf blotch, rating marked with asterisk (*), meaning not given): 99* %"
COc1cc(Nc2c(-c3c(F)cc(C#N)cc3F)c(C)nn2C)ccc1F [compound 127],0,0,0,70,68,0,99,–,–,–,–,–,–,–,–
COc1cc(F)c(-c2c(C)nn(C)c2Oc2ccc(Cl)c(OC)c2)c(F)c1 [compound 211],–,–,–,–,–,–,–,0,0,96,77,17,0,99,–
Cc1nn(C)c(Nc2cc(F)c(F)c(F)c2)c1-c1ccc(F)cc1Cl [compound 132],0,0,92,99,94,0,100,–,–,–,–,–,–,–,–
Cc1nn(Cc2ccccc2)c(Oc2c(F)cc([N+](=O)[O-])cc2F)c1-c1c(F)cc(F)cc1F [compound 53],0,0,0,0,0,0,0,–,–,–,–,–,–,–,–
Cc1nn(C)c(Nc2ncc(Cl)cc2Cl)c1-c1ccccc1Cl [compound 320],–,–,–,–,–,–,–,–,–,–,–,–,–,–,"Test F disease control rating (Septoria nodorum; Septoria glume blotch on wheat, 100 = 100% disease control, 0 = no disease control relative to controls): 0%; Test C disease control rating (Alternaria solani; tomato early blight, 100 = 100% disease control, 0 = no disease control relative to controls): 67%; Test J disease control rating ([1]; wheat powdery mildew, sprayed the day before inoculation, 100 = 100% disease control, 0 = no disease control relative to controls): 98%; Test B disease control rating (Botrytis cinerea; tomato Botrytis, 100 = 100% disease control, 0 = no disease control relative to controls): 99%; Test I disease control rating ([2]; wheat leaf rust, sprayed the day before inoculation, 100 = 100% disease control, 0 = no disease control relative to controls): 99%; Test H disease control rating ([3]; wheat leaf rust, sprayed after inoculation, 100 = 100% disease control, 0 = no disease control relative to controls): 0%; Test G disease control rating (Septoria tritici; wheat leaf blotch, sprayed the day before inoculation, 100 = 100% disease control, 0 = no disease control relative to controls): 100%"
Cc1nn(C)c(Nc2c(F)cc(F)cc2F)c1-c1ccccc1F [compound 182],–,–,–,–,–,–,–,87,99,99,97,95,0,100,–
Cc1nn(C)c(Nc2ccc(F)cc2F)c1-c1c(F)cccc1F [compound 178],–,–,–,–,–,–,–,80,100,100,100,83,0,98,–
